Experiment [1] concerns Human alphaherpesvirus 1. Nature of the experiment: Tested for mean day to death of nonsurvivors against HSV-1 infection in mice at 200 mg/kg per day. The class given is functional.
For experiment [2], the system named is Human alphaherpesvirus 1. Nature of the experiment: Tested for mean day to death of nonsurvivors against HSV-1 infection in mice at 50 mg/kg per day. The class given is functional.
For experiment [3], the system named is Human alphaherpesvirus 1. Nature of the experiment: In vitro antiviral activity against herpesvirus, HSV-1,E-377 strain by plaque reduction assay in human foreskin fibroblasts. As to conditions: read-out: ED50 (the source's name). Format: functional.
Experiment [4] deals with Human alphaherpesvirus 2. Nature of the experiment: In vitro antiviral activity against herpesvirus,HSV-2,HEET strain by plaque reduction assay in human foreskin fibroblasts. Format: functional. The following applies: read-out: ED50 (the source's name).
In experiment [5] the test system is Human alphaherpesvirus 1. Nature of the experiment: Tested for mean day to death of nonsurvivors against HSV-1 infection in mice at 12.5 mg/kg per day. The class given is functional.
Experiment [6] deals with Human alphaherpesvirus 1. Nature of the experiment: In vitro antiviral activity against herpesvirus, HSV-1, E-377 strain by plaque reduction assay in human foreskin fibroblasts. The class given is functional. As to conditions: read-out: ID50 (the source's name).
Experiment [7] can be described thus: In vitro antiviral activity against herpesvirus, HSV-JEN strain by plaque reduction assay in human foreskin fibroblasts. The class given is functional, herpes simplex virus. The following applies: Human alphaherpesvirus 1; read-out: ID50 (the source's name).
Experiment [8] concerns Human alphaherpesvirus 2. Nature of the experiment: In vitro antiviral activity against herpesvirus, HSV-2, JEN strain by plaque reduction assay in human foreskin fibroblasts. Format: functional. The following applies: read-out: ED50 (the source's name).
The test system of experiment [9] is Human alphaherpesvirus 2. Nature of the experiment: In vitro antiviral activity against herpesvirus, HSV-2, MS strain by plaque reduction assay in human foreskin fibroblasts. The class given is functional. As to conditions: read-out: ED50 (the source's name).
The test system of experiment [10] is Human alphaherpesvirus 1. Nature of the experiment: Number of survivors per number of HSV-1 infected mice treated with 12.5 mg/kg per day; 2/10. Format: functional.
Experiment [11] has as its system Human alphaherpesvirus 1. Nature of the experiment: Number of survivors per number of HSV-1 infected mice treated with 200 mg/kg per day; 4/10. Format: functional.
The subject of experiment [12] is Human alphaherpesvirus 1. Nature of the experiment: Number of survivors per number of HSV-1 infected mice treated with 50 mg/kg per day; 0/10. Format: functional.
The subject of experiment [13] is Human alphaherpesvirus 2. Nature of the experiment: In vitro antiviral activity against herpesvirus, HSV-2, MS strain by plaque reduction assay in human foreskin fibroblasts. Format: functional. The following applies: read-out: ID50 (the source's name).
The test system of experiment [14] is Human alphaherpesvirus 2. Nature of the experiment: In vitro antiviral activity against herpesvirus,HSV-2,X-79 strain by plaque reduction assay in human foreskin fibroblasts. As to conditions: read-out: ED50 (the source's name). Format: functional.
Experiment [15] deals with Human alphaherpesvirus 2. Nature of the experiment: In vitro antiviral activity against herpesvirus, HSV-2, X-79 strain by plaque reduction assay in human foreskin fibroblasts. The following applies: read-out: ID50 (the source's name). Format: functional.
Experiment [16] is described as follows: In vitro antiviral activity against herpesvirus, HSV-HEET strain by plaque reduction assay in human foreskin fibroblasts. Format: functional, herpes simplex virus. The following applies: Human alphaherpesvirus 1; read-out: ID50 (the source's name).
The next experiment has as its system Raji. Nature of the experiment: Tested for the inhibition of diffuse early antigen production assayed by immunofluorescent monoclonal antibody. The following applies: Homo sapiens. The class given is functional.
Experiment [17] relates to Human alphaherpesvirus 3. Nature of the experiment: In vitro antiviral activity tested against herpesvirus, VZV, Ellen strain by plaque reduction assay in human foreskin fibroblasts. As to conditions: Human alphaherpesvirus 3, read-out: ED50.
The subject of experiment [18] is Human alphaherpesvirus 3. Nature of the experiment: In vitro antiviral activity against herpesvirus, VZV, Ellen strain by plaque reduction assay in human foreskin fibroblasts. As to conditions: Human alphaherpesvirus 3, read-out: ID50.
The test system of experiment [19] is Human alphaherpesvirus 3. Nature of the experiment: In vitro antiviral activity tested against herpesvirus, VZV, OKA strain by plaque reduction assay in human foreskin fibroblasts. The following applies: Human alphaherpesvirus 3, read-out: ED50.
Experiment [20] has as its system Human alphaherpesvirus 3. Nature of the experiment: In vitro antiviral activity against herpesvirus, VZV, OKA strain by plaque reduction assay in human foreskin fibroblasts. The following applies: Human alphaherpesvirus 3, read-out: ID50.
For another experiment, the species on record is Homo sapiens. Nature of the experiment: The drug concentration was determined to reduce proliferation of human foreskin fibroblasts to 50% of untreated controls in proliferation assay. The class given is functional. As to conditions: read-out: ID50 (the source's name).
Experiment [21] deals with Human immunodeficiency virus 1. Nature of the experiment: Tested for the determination of percentage protection at 1 uM concentrations against HIV-1 in ATH8 Cells. The class given is functional.
Experiment [22] deals with Human immunodeficiency virus 1. Nature of the experiment: Tested for the determination of percentage protection at 100 uM concentrations against HIV-1 in ATH8 Cells. Format: functional.
Experiment [23] has as its system Human immunodeficiency virus 1. Nature of the experiment: Tested for the determination of percentage protection at 20 uM concentrations against HIV-1 in ATH8 Cells. The class given is functional.
In experiment [24] the test system is Human immunodeficiency virus 1. Nature of the experiment: Tested for the determination of percentage protection at 5 uM concentrations against HIV-1 in ATH8 Cells. Format: functional.
In experiment [25] the test system is Human immunodeficiency virus 1. Nature of the experiment: Tested for the determination of percentage toxicity at 20 uM concentrations against HIV-1 in ATH8 Cells. The class given is functional.
The subject of experiment [26] is Human immunodeficiency virus 1. Nature of the experiment: Tested for the determination of percentage toxicity at 5 uM concentrations against HIV-1 in ATH8 Cells. Format: functional.
The subject of experiment [27] is Human immunodeficiency virus 1. Nature of the experiment: Tested for the determination of percentage toxicity at 1 uM concentrations against HIV-1 in ATH8 Cells. Format: functional.
Experiment [28] has as its system Human immunodeficiency virus 1. Nature of the experiment: Tested for the determination of percentage toxicity at 100 uM concentrations against HIV-1 in ATH8 Cells. Format: functional.

From ChEMBL document CHEMBL1124752, “Cyclobut-A and cyclobut-G: broad-spectrum antiviral agents with potential utility for the therapy of AIDS” (J Med Chem, 1990) come the findings set out here.

≈ marks a conversion by molar mass, not a printed value.

For `Nc1nc2c(ncn2COCCO)c(=O)[nH]1` [ACYCLOVIR], the results for the MDD in the experiment with Human alphaherpesvirus 1 [1], in the experiment with Human alphaherpesvirus 1 [2] and with Human alphaherpesvirus 1 [5] were 12.3, 8 and 7.8, respectively. The EC50 in the experiment with Human alphaherpesvirus 1 [3] stood at 0.08 µg/mL (≈ 0.355 µM); in the experiment with Human alphaherpesvirus 2 [4], 0.06 µg/mL (≈ 0.266 µM); in the experiment on Human alphaherpesvirus 2 [8], 0.07 µg/mL (≈ 0.311 µM); in the experiment with Human alphaherpesvirus 2 [9] it was 0.09 µg/mL (≈ 0.4 µM); in the experiment with Human alphaherpesvirus 2 [14], 0.1 µg/mL (≈ 0.444 µM); in the experiment on Raji (read-out: ED50 (the source's name)), 3.8 µg/mL (≈ 16.9 µM). Besides, the values for the EC50 in the experiment on Human alphaherpesvirus 3 [17] and with Human alphaherpesvirus 3 [19] were 2.3 µg/mL (≈ 10.2 µM) and 3.7 µg/mL (≈ 16.4 µM), respectively. Besides, the IC50 (in the experiment with Human alphaherpesvirus 1 [6]; in experiment [7]; in the experiment with Human alphaherpesvirus 2 [13]; in the experiment on Human alphaherpesvirus 2 [15]; in [16]; with Raji (read-out: ID50 (the source's name))) was over 100 µg/mL throughout. Moreover, the IC50 with Human alphaherpesvirus 3 [18] was over 100 µg/mL; in the experiment on Human alphaherpesvirus 3 [20] it was over 100 µg/mL; in the experiment listed under Homo sapiens it was 165 µg/mL (≈ 733 µM). Moreover, the values for the Survivors / treated in the experiment with Human alphaherpesvirus 1 [10], in the experiment with Human alphaherpesvirus 1 [11] and in the experiment on Human alphaherpesvirus 1 [12] were 2, 4 and 0, respectively.

With `Cc1cn([C@H]2C[C@H](N=[N+]=[N-])[C@@H](CO)O2)c(=O)[nH]c1=O` [ZIDOVUDINE], the Protection in [21] is on record as 65%; in [22], 47%; in [23], 65%; in experiment [24], 96%. Moreover, the Cytotoxicity came to 54% in experiment [25], 30% in experiment [26], 3% in experiment [27] and 54% in [28].
